Consider 9 compounds from article PMC6151456, “Screening a Natural Product-Based Library against Kinetoplastid Parasites” (Molecules : A Journal of Synthetic Chemistry and Natural …, 2017).

Where a name gives a salt, the structure may show the parent alone. Read-outs that look alike come from different tables or passages of the source.

Experiment [1] deals with T. b. brucei bloodstream form strain 427. In words: T. b. brucei resazurin viability assay. As to conditions: for IC50: Trypanosoma brucei, n = 2, 14 point dose response, top 20 µM, read-out: IC50 (mean ± SD), T. b. brucei. The format is cell-based, Trypanosoma brucei brucei. The protocol:
(§1) For the primary screen, compounds were prepared as a stock concentration of 5 mM in 100% DMSO and tested in duplicate points for two independent experiments (n = 2) at final assay concentrations of 20 µM and 16.7 µM for the L. donovani intracellular amastigote and promastigote viability assays, respectively. Primary screening against T. b. brucei was undertaken at 5 µM and for T. cruzi at 10 µM final concentrations. […] These compounds were then retested in a 14 point format to determine the IC50 value against the parasite, and against HEK-293, THP-1 and 3T3 cells to determine the selectivity to the parasite. […] A top dose of 20 µM was used in the T. b. brucei assay and 18.3 µM for T.cruzi assay, in 14 point dose repsonse curves as described.
The efficacy of compounds against T. b. brucei bloodstream form was evaluated using a resazurin-based assay, previously described in the literature.
On the technique in general: The colour change of resazurin is a common sign of viable cells or microbes.

Experiment [2] relates to T. cruzi intracellular amastigotes. In words: T. cruzi intracellular amastigote image-based assay. The following applies: for IC50: Trypanosoma cruzi, intracellular amastigotes, n = 2, top 18.3 µM, read-out: IC50 (mean ± SD), T. cruzi. The format is cell-based, Trypanosoma cruzi. The protocol: as §1
(§2) The efficacy of compounds against T. cruzi was undertaken using a phenotypic, high-throughput image-based assay as previously described.

Another experiment concerns HEK-293 cells. In words: HEK-293 resazurin viability assay (cytotoxicity, selectivity). The format is cell-based, human. The protocol: (§3) Primary screening against T. b. brucei was undertaken at 5 µM and for T. cruzi at 10 µM final concentrations.
Cytotoxicity testing was undertaken as previously described.

Experiment [3] deals with 3T3 host cells. In words: 3T3 host cell cytotoxicity (selectivity). The following applies: relative to T. cruzi. The format is cell-based, mouse. The protocol: as §3, §2
The test system of the next experiment is P. falciparum (3D7). The following applies: cited from earlier work.
The subject of another experiment is P. falciparum (Dd2). The following applies: cited from earlier work.
For a further experiment, the system named is malaria infection. Further details: method as in PMID 25490858. As to conditions: mouse, oral administration; cited from earlier work.
The next experiment relates to L. donovani DD8. Set-up: method as in PMID 7592170. The following applies: compared to other strains; cited from earlier work.
In another experiment the test system is L. donovani. Further details: method as in PMID 28498323. As to conditions: cited from earlier work.
The next experiment concerns T. b. rhodesiense. Further details: method as in PMID 28498323. As to conditions: cited from earlier work.
In experiment [4] the test system is T. cruzi. Set-up: method as in PMID 28498323. The following applies: cited from earlier work.
For experiment [5], the system named is NF54 strain of Plasmodium falciparum. Further details: method as in PMID 28498323. The following applies: read-out: IC50, P. falciparum NF54; cited from earlier work.
In experiment [6] the test system is T. b. brucei. Further details: method as in PMID 18833031. As to conditions: cited from earlier work.
Experiment [7] concerns L. donovani DD8 promastigotes. In words: L. donovani DD8 promastigote viability assay (resazurin). As to conditions: Leishmania donovani. The format is cell-based, Leishmania donovani. The protocol: as §1
This assay was established to assess the activity of the compound library on the extracellular form of the parasites. An initial cell density of 1 × 10^5 parasites/mL was inoculated into a 75 cm^2 flask (in a total of 30 mL of M199 medium + 10% (v/v) HIFBS) and incubated at 27 °C. After 96 h the parasites reached the mid-log phase and were seeded in black, clear bottom 384-well plates (Greiner-bio-one®, Monroe, UT, USA) at a concentration of 5 × 10^5 parasites/mL in a volume of 55 µL using a Bravo automated liquid handling platform (Agilent, Santa Clara, CA, USA). Compound stocks were diluted 1:25 in M199 media without HIFBS using a dilution plate (Greiner-bio-one®, Monroe, UT, USA). The compounds were dispensed in 5 µL using a Bravo and parasites incubated for an additional 68 h at 27 °C. Resazurin (Cayman Chemicals®, Ann Arbor, MI, USA) at 0.142 mM final assay concentration was then dispensed into plates at a volume of 10 µL/well using a Multidrop™ 384 Reagent Dispenser (Thermo Scientific®, Newington, NH, USA) and incubated at 27 °C. The plates were read after 4 h on an EnVision™ Multilabel plate reader (PerkinElmer, Waltham, MA, USA) using fluorometry with an excitation of 530 nm and emission 590 nm. For the L. donovani DD8 promastigote viability assay, 1 µM of amphotericin B was used as positive control and 0.4% DMSO as negative control.

Experiment [8] concerns T. cruzi. Set-up: method as in PMID 25033456. As to conditions: cited from earlier work.
The subject of experiment [9] is 3T3 host cells. Set-up: method as in PMID 25033456. As to conditions: relative to T. cruzi; cited from earlier work.
For experiment [10], the system named is T. b. brucei. Set-up: method as in PMID 20696141. As to conditions: cited from earlier work.
The test system of experiment [11] is L. donovani DD8 intracellular amastigotes. In words: L. donovani DD8 intracellular amastigote high content imaging assay. As to conditions: Leishmania donovani; n = 2; 14 point dose response, top 20 µM; read-out: IC50 (mean ± SD), L. donovani DD8 intracellular amastigotes. The format is cell-based, Leishmania donovani. The protocol:
as §1
A high content, high-throughput imaging assay was used to identify compounds active against L. donovani DD8 intracellular amastigotes as described previosuly.

A further experiment deals with THP-1 cells. In words: THP-1 cytotoxicity (selectivity). The format is cell-based, human. The protocol:
as §1

The test system of experiment [12] is L. donovani (MHOM/SD/62/1S-CL2D) axenic amastigotes. Set-up: method as in PMID 15679330. As to conditions: strain MHOM/SD/62/1S-CL2D; cited from earlier work.
Another experiment has as its system T. b. brucei variant 221. The following applies: cited from earlier work.
Experiment [13] deals with L. mexicana intracellular amastigotes. Further details: method as in PMID 15679330. As to conditions: at 41.89 µM; cited from earlier work.
A further experiment relates to L. donovani amastigotes. Set-up: method as in PMID 22720099. As to conditions: previously reported; read-out: IC50, amastigote assay; cited from earlier work.
The mark [14] stands for this setting: relative to L. donovani DD8 intracellular amastigotes.
Where [15] appears, read: relative to L. donovani DD8 promastigotes.

The IC50 is the concentration at which inhibition is half-maximal. Consider `NCCc1c[nH]c2c1C(=O)C1=C(NC=CS1(=O)=O)C2=O` [Compound 3, Thiaplakortone A], for which the IC50 was 3.94 ± 0.78 µM in experiment [1]; 4.26 ± 0.65 µM in experiment [2]; 0.051 µM in the experiment with P. falciparum (3D7) (read-out: IC50, chloroquine-sensitive (3D7) P. falciparum); 0.0066 µM in the experiment with P. falciparum (Dd2) (read-out: IC50, multi-drug resistant (Dd2) P. falciparum). For the same compound, the “Selectivity index (SI) compared to HEK-293 cells” value came to 0.70 in the experiment with HEK-293 cells (relative to T. b. brucei) and 0.53 in the experiment with HEK-293 cells (relative to T. cruzi). In addition, the “Selectivity index (SI) compared to 3T3 cells” value with 3T3 host cells [3] is on record as 1.06. Further, the suppression of parasitemia result in the experiment on malaria infection is “did not suppress parasitemia”.

Turning to parmomycin, the “activity against L. donovani DD8” value with L. donovani DD8 was “negligible activity”.

As to `Cc1ccc(S(=O)(=O)n2ccc3c2C(=O)C2=C(NCCS2(=O)=O)C3=O)cc1` [Compound 7, 6-tosyl-2,3-dihydro-[1, 4]thiazino[3,2-f]indole-5,9(1H,6H)-dione 4,4-dioxide], the IC50 is 0.68 ± 0.01 µM in experiment [1]; 3.55 ± 0.38 µM in experiment [2]; 0.546 ± 0.119 µM in the experiment on P. falciparum (3D7) (read-out: IC50, 3D7 strain of P. falciparum); 0.509 ± 0.0309 µM in the experiment with P. falciparum (Dd2) (read-out: IC50, Dd2 strain of P. falciparum). In addition, the “Selectivity index (SI) compared to HEK-293 cells” value with HEK-293 cells (relative to T. b. brucei) stood at 4.19; in the experiment on HEK-293 cells (relative to T. cruzi), 1.46. For the same compound, the “Selectivity index (SI) compared to 3T3 cells” value with 3T3 host cells [3] was 1.33.

Turning to `CCCCCCC/C=C/C=C/C(=O)NCCc1ccc(O)cc1` [dodeca-2E,4E-dienoic acid 4-hydroxy-2-phenyl-ethylamide], the concentration for half-maximal inhibition (IC50) in the experiment on L. donovani was 4.19 ± 1.64 µM; in the experiment on T. b. rhodesiense, 2.26 ± 0.18 µM; in the experiment on T. cruzi [4], 1.88 µM; in experiment [5], 3.18 ± 0.2 µM.

For the compound `COc1ccc2c(c[n+](C)c3c4cc5c(cc4ccc23)OCO5)c1OC` [Compound 15, Chelerythrine chloride, reference compound], the IC50 in experiment [1] was 0.23 ± 0.04 µM; in the experiment on T. b. brucei [6], 1.3 µM. Moreover, in the experiment with HEK-293 cells (relative to T. b. brucei, listed as Chelerythrine chloride (15)), the “Selectivity index (SI) compared to HEK-293 cells” value is on record as more than 18.71.

The term inhibition denotes how much of the control response was suppressed. Broadly, the EC50 is the midpoint of the concentration-response curve. `OC(c1cc(C(F)(F)F)nc2c(C(F)(F)F)cccc12)C1CCCCN1` (centres unmarked) [Compound 8, Mefloquine HCl, reference compound] showed an inhibition at 16.7 µM in experiment [7] of 100%. In addition, the results for the IC50 in experiment [1] and in experiment [2] were 0.62 ± 0.06 µM and 3.96 ± 0.58 µM, respectively. Besides, the “Selectivity index (SI) compared to HEK-293 cells” value in the experiment on HEK-293 cells (relative to T. b. brucei) was 7.97; in the experiment on HEK-293 cells (relative to T. cruzi) it was more than 5.06. In the experiment with 3T3 host cells [3], the “Selectivity index (SI) compared to 3T3 cells” value is given as more than 1.70. Also, the EC50 in the experiment on T. cruzi [8] is 6.1 µM. The “SI to 3T3 host cells” value with 3T3 host cells [9] is on record as 2.

In the case of `CC[C@H]1CN2CCc3cc(OC)c(OC)cc3[C@@H]2C[C@@H]1C[C@H]1NCCc2cc(OC)c(OC)cc21` [Compound 10, Emetine dihydrochloride, reference compound], in experiment [7], 16.7 µM produced 100% inhibition. Further, in the experiment with T. b. brucei [10], the IC50 is 7.9 µM.

`COc1c(C)c(O)c(C(=O)/C=C/c2ccccc2)c(O)c1C` [Compound 13, (E)-1-(2,6-dihydroxy-4-methoxy-3,5-dimethylphenyl)-3-phenylprop-2-en-1-one] returned an inhibition at 16.7 µM in [7] of 100%. For the same compound, the results for the IC50 (in experiment [11]; in experiment [12]; in the experiment on T. b. brucei variant 221) were 5.65 ± 0.26 µM, 16.8 ± 4.35 µM and 21.1 ± 3.68 µM, respectively. Also, in [1], the “activity against T. b. brucei” value is listed as “no significant activity”. Besides, in [2], the “activity against T. cruzi” value is listed as “no significant activity”. Also, the “Selectivity index (SI) compared to HEK-293 cells” value with HEK-293 cells (setting [14]) is on record as ~ 12; in the experiment on HEK-293 cells (relative to L. donovani DD8 intracellular amastigotes, listed as Chalcone analogue (13)), 11.87. Further, in the experiment on THP-1 cells (setting [14]), the “Selectivity index (SI) compared to THP-1 cells” value turned out to be 3.59. Further, the “reduction in infection of L. mexicana intracellular amastigotes” value in [13] was 96 ± 2%.

For the compound `CCCCCCCCCCCCCCCCOP(=O)([O-])OCC[N+](C)(C)C` [Miltefosine, reference compound], the half-maximal inhibitory concentration (IC50) in experiment [7] (n = 2, 14 point dose response, top 16.7 µM, read-out: IC50 (mean ± SD), L. donovani DD8 promastigotes) is 3.48 ± 0.26 µM; in experiment [11], 2.54 ± 0.57 µM; in the experiment with L. donovani amastigotes, 3.1 ± 2.3 µM. The “Selectivity index (SI) compared to HEK-293 cells” value with HEK-293 cells (setting [14]) is more than 13.12; in the experiment on HEK-293 cells (setting [15]) it was more than 9.57. Besides, the “Selectivity index (SI) compared to THP-1 cells” value in the experiment with THP-1 cells (setting [14]) is recorded as more than 7.27; in the experiment with THP-1 cells (setting [15]) it was more than 5.74.
